Data as given in US10702568B2, “Compositions containing silymarin and sulfoalkyl ether cyclodextrin and methods of using the same” (UNIVERSITY OF KANSAS, priority 2015, dated 2020).
Converted amounts (≈) assume the structure as drawn.

What was measured:
[1] = Silymarin solubility at elevated temperatures (Example 3, HPLC); type: physicochemical; conditions: 160 mg silymarin in 1 ml 0.1 M CAPTISOL®, sealed vial, 70-75° C., about one hour
Procedure: The solubility of silymarin was also studied at elevated temperatures. The silymarin-water samples were prepared by adding 3.0 ml of deionized water or 3.0 ml of CAPTISOL® solution (0.05 M, 0.10 M, or 0.20 M) to 155 mg silymarin 80% in 5 ml Eppendorf tube, and the tubes were capped securely to minimize evaporation loss and submerged in a water bath at an elevated temperature (60° C. or 75° C.)). CAPTISOL® solutions were prepared by dissolving CAPTISOL® in water. The solution in the tube was stirred for a certain amount of time. The solution was then centrifuged for 5 min twice and the supernatant was diluted with 40% methanol for HPLC analysis. The silymarin CAPTISOL® samples were diluted by adding 10 μL supernatant sample to 990 μL diluent. The silymarin water samples were diluted by adding 100 μL supernatant sample to 900 μL diluent. The diluted samples were then analyzed using HPLC according to the procedures described in Example 1.
Saturated CAPTISOL® silymarin solutions were also prepared by adding 160 mg silymarin to 1 ml of 0.1 M CAPTISOL® solution in a sealed vial under mechanic stirring and the vial was kept in a water bath at 70-75° C. The solution became quickly saturated in about one hour. The solution was then cooled to room temperature and centrifuged, and the supernatant can then be used for preparing various formulations. […]

[2] = Solubility of silymarin components in water (Example 10, HPLC); type: physicochemical; conditions: water; component of Indena silymarin extract, HPLC; read-out: Solubility in water
Procedure: (§1) Silymarin components including taxifolin, silydianin, silychristin, silybin A, silybin B, isosilybin A, and isosilybin B were tested for their solubility in water and also for their Log D value. The silymarin extract was obtained from Indena® (Indena Code: 9065110). The HPLC system consisted of Waters system equipped with performance PLUS inline degasser along dual λ absorbance detector set at 288 nm. The chromatographic separation of silymarin constituents was achieved on a Symmetry Shield RP18 column (150×4.6 mm, 5 μm); which was maintained at ambient room temperature conditions. The binary mobile phase system consisted of reservoir A (methanol: 10 mM ammonium acetate pH 5 [65:35 v/v]) and reservoir B (10 mM ammonium acetate, pH 5) were run as per gradient program (0-1.9 min: 25% A and 75% B; 2.0-14.9 min: 80% A and 20% B and 15-37.9 min: 80% A and 20% B and 38-40 min: 25% A and 75% B). The flow rate was 1 mL/min throughout the analytical run.

[3] = Log D of silymarin components (octanol/buffer, HPLC); type: physicochemical; conditions: octanol/universal buffer pH 7.4, 16 h shaking at room temperature; read-out: Log D (7.4 pH)
Procedure: as §1
To determine the Log D of silymarin components, the silymarin extract (2 mg) was dissolved in 100% DMSO and then used for the experiment. Different buffers between pH ranges of 1.0 to 12 were prepared by using universal buffer stock containing 25 mM hydrochloric acid, 25 mM citric acid, 25 mM phosphoric acid, 30 mM boric acid and 20 mM sodium chloride. About 45 mL of universal buffer was titrated with Sodium hydroxide (5M) to obtain desired pH. A 10 μL of silymarin stock solution was spiked into Eppendorf tube containing 500 μL each of a buffer and presaturated octanol. This mixture was vortexed for 5 minutes and kept for shaking at room temperature. After 16 h, the mixture was centrifuged at 10,000 RPM for 30 minutes. After centrifugation buffer and octanol phases were separated, both phases were diluted with acetonitrile (1:1) and subject to HPLC analysis for quantitation of individual components of silymarin. The Log D values of each compound at a pH was determined by Log D (pH)=Log [Organic (peak area)/Aqueous (peak area)].

[4] = Pharmacokinetic study in rat; type: in vivo; conditions: oral, FIG. 21A
Procedure: The Silymarin-CAPTISOL® complex was administered to rat to test its pharmacokinetic properties.
On arrival rats were housed individually in cages at animal care facility in a temperature and humidity controlled room with a 12 h:12 h (light:dark) cycles. The rats were provided with free access to food and water for one week before using for experimental purpose. The 12 rats were equally divided into three groups—Group I: silymarin-CAPTISOL® complex with a CAPTISOL® concentration of 100 mM for oral administration; Group II: silymarin suspension (Control); and Group III: silymarin complex with a CAPTISOL® concentration of 100 mM for intravenous administration. The animals were fasted overnight with free access to water. On the day of experiment, the rat was removed from animal care facility and brought to the procedure lab. The animal was weighed and appropriate dosing volume was determined. For oral administration, rat's head was held in place by gently extending the head back and supporting the lower body. The gavage tube was placed in the mouth and advanced along the lower palate till the esophagus, and the silymarin was administered through the tube. For intravenous administration, the silymarin-CAPTISOL® complex was administered by slow bolus intravenous injection into the tail vein. Approximately 200 μL blood was drawn into heparin coated tubes at pre dose, 0.15, 0.5, 1, 2, 4, 8, 10 and 24 h for oral group II and for intravenous group III. The sampling time points were predose, 0.12, 0.25, 0.5, 1, 2, 4, 8 and 24 h through the jugular vein catheter. Plasma was harvested by centrifuging the blood at 4000 RPM for 5 min and stored frozen at −80±10° C. until analysis.
Stored plasma was thawed just before performing the silymarin components analysis. 200 μL of acetonitrile containing 0.1% of ammonia was added to 50 μL of plasma, and this mixture was vortexed for 5 min and centrifuged at 4° C. for 5 min at 10,000 RPM. After centrifugation, the supernatant was separated and injected into HPLC for analysis of silymarin constituents taxifolin, silydianin, silychristin, silybin A, silybin B, isosilybin A and isosilybin B.
The plasma concentration-time curves of silybin A, silybin B, isosilybin A, and isosilybin B in the Silymarin-CAPTISOL® sample of Group I and the control sample (silymarin suspension) are respectively shown in FIGS. 20A to 20D.

concentration fold higher than in the water silymarin sample [1]: 5 fold | solubility [2]: 550 µg/mL (≈ 1810 µM) | logD at 16 h [3]: 1.35 | AUC of Silymarin-CAPTISOL® complex compared with the control sample [4]: higher AUC
SMILES: O=C1c2c(O)cc(O)cc2O[C@H](c2ccc(O)c(O)c2)[C@H]1O [Taxifolin]
